Reference: US20070259094A1, “N-acetylglucosamine as a food and beverage additive” (priority 2002, published 2007)
Read-outs that look alike come from different tables or passages of the source.

Key:
[1] = tested on: primary knee osteoarthritis; conditions: cited from earlier work
[2] = tested on: osteoarthritis (knee); conditions: 4-week course, cited from earlier work; for symptoms of osteoarthritis: glucosamine sulphate 1,500 mg, ibuprofen 1,200 mg
[3] = pH of aqueous solution; assay type: physicochemical; conditions: for pH of solution: 2 grams in 180 mL of water
Method: Two grams of glucosamine sulphate in 180 mL of water gives a solution with a pH of 6.06 and glucosamine hydrochloride gives a solution with a pH of 6.07.
A solution of 2 grams of N-acetylglucosamine in 180 mL of water has a pH of 7.40.

[4] = Bran muffin baking behaviour at 400° F. (204° C.); assay type: physicochemical; conditions: bran muffins baked at 204° C.
Method: Measure out 4 times 415 mL dry muffin mix (sufficient to make 6 muffins each) to make up the following formulae
Add to each dry mix 160 mL of water and ¼ of egg mixture and mix thoroughly.
Pour equal amounts into 6 muffin cups for each of the formulae.
Preheat oven to 400° F. or 204° C., bake each formula separately and observing cooking behaviour.

[5] = tested on: osteoarthritis of the temporomandibular joint; conditions: cited from earlier work; for patients improved (positive clinical response = 20% decrease TMJ pain with function): GS 500 mg tid, ibuprofen 400 mg tid, p=0.73 between groups; for number of patients improved (positive clinical response): of 21 GS and 18 ibuprofen completers
[6] = cited from earlier work; for half-life: doses as high as 20 grams per human subject; for adverse events: five subjects
[7] = cited from earlier work; for absolute bioavailability: compared with IV at 100%
[8] = tested on: IL-1β-induced NO production in normal human articular chondrocytes; conditions: cited from earlier work; for effect on IL-1β-induced NO production: normal human articular chondrocytes; for Inhibitory Activity on IL-1β induced NO Production: table of various sugars
[9] = tested on: IL-6; conditions: cited from earlier work; for inhibiting the production of IL-6: human chondrocytes stimulated with IL-1
[10] = tested on: Inducible NO Synthetase; conditions: cited from earlier work; for inhibiting the production of nitric oxide synthetase: human chondrocytes stimulated with IL-1
[11] = tested on: COX-2; conditions: cited from earlier work; for inhibiting the production of COX-2: human chondrocytes stimulated with IL-1
[12] = cited from earlier work
[13] = tested on: intestinal mucosa; conditions: cited from earlier work
[14] = tested on: intestinal mucosa; experiment: Incorporation of glucosamine and N-acetylglucosamine into glycoproteins of intestinal mucosa in vitro; assay type: cell-based, human; conditions: normal subjects, on average
Source text: Inflammatory conditions can also interfere with the incorporation of glucosamine into glycosaminoglycans. Intestinal mucosal from patients with ulcerative colitis and Crohn's disease and from patients without inflammatory disease were studied in vitro. N-acetylglucosamine is preferentially incorporated into glycoproteins over glucosamine. In normal subjects—ratio ranges were from 0.04 to 0.26 with a mean 0.097. Thus on average 10 times more N-acetylglucosamine is incorporated into macromolecules than glucosamine. In IBD the mean ratio of incorporation of glucosamine to N-acetylglucosamine is 0.039 for Crohn's and 0.031 for ulcerative colitis. In other words, 25 to 32 times more N-acetylglucosamine was incorporated into macromolecules compared to glucosamine (2).

[15] = tested on: COX-1; conditions: constitutively expressed, human chondrocytes; cited from earlier work
[16] = tested on: severe treatment-resistant inflammatory bowel disease; conditions: cited from earlier work
[17] = number of patients of 106, three years
[18] = IL-1β-stimulated human chondrocytes
[19] = rectal administration as sole therapy

## N[C@H]1C(O)O[C@H](CO)[C@@H](O)[C@@H]1O.O=S(=O)(O)O (stereo partly drawn) [Glucosamine Sulphate]
[1]; 1.5 grams per day, three years, versus placebo, p<0.05
  significant joint space narrowing: did not
[1]; during the study
  fasting plasma glucose concentrations: decreasing slightly
[1]; [17]
  Withdrawal from Study Due to Adverse Events: 21
  Withdrawal from Study, Lack of Efficacy: 3
[1]; three-year period
  incidence and type of adverse events versus placebo: not different between the two groups
  routine laboratory tests (system organs, metabolic functions): did not show any abnormalities
[2]
  patients dropped out because of adverse events / side effects: None
  symptoms of osteoarthritis: reduced symptoms
[3]
  pH (1% in water): 6.06
  pH of solution: 6.06
[4]
  stability in the baking process: break down in the baking process
[5]; 90 days
  patients improved (positive clinical response = 20% decrease TMJ pain with function): 71%
  patients discontinued due to dizziness: one
  patients discontinued due to stomach upset: one
[5]; between Day 90 and 120, compared with ibuprofen
  decrease in TMJ pain with function and acetaminophen use, between-group comparison: significantly greater decrease
[5]
  number of patients improved (positive clinical response): Fifteen

## Cl.N[C@H]1C(O)O[C@H](CO)[C@@H](O)[C@@H]1O (stereo partly drawn) [Glucosamine hydrochloride]
[6]; IV
  half-life: 2.5 h
[6]
  adverse events: no adverse events reported
[6]; human, in vivo, iv
  blood sugar when administered with 7 units of insulin: showed a rise in blood sugar
  blood sugar when administered without insulin: Neither agent showed a rise in blood sugar
[3]
  pH (1% in water): 6.07
  pH of solution: 6.07
[4]
  stability in the baking process: break down in the baking process

## N[C@H]1C(O)O[C@H](CO)[C@@H](O)[C@@H]1O (stereo partly drawn) [Glucosamine]
[7]; IM administration
  absolute bioavailability: 93%
[7]; oral administration
  absolute bioavailability: 44%
[7]; oral route
  administered dose excreted by the kidneys: about 10%
  administered dose excreted via the feces: 11%
[8]
  effect on IL-1β-induced NO production: inhibit
  Inhibitory Activity on IL-1β induced NO Production: Weak
[9]
  inhibiting the production of IL-6: not effective
[10]
  inhibiting the production of nitric oxide synthetase: not effective
[11]
  inhibiting the production of COX-2: not effective
[12]; forearm glucosamine infusion, twenty human volunteers
  total body insulin sensitivity: did not affect
[12]; glucosamine infusion
  baseline arteriovenous glucose differences: not affected
  forearm blood flow: did not alter
  forearm skeletal muscle glucose uptake: did not affect
[13]; Crohn's
  mean ratio of incorporation of glucosamine to N-acetylglucosamine: 0.039
[13]; normal subjects
  ratio of incorporation of glucosamine to N-acetylglucosamine, mean: 0.097
[13]; ulcerative colitis
  mean ratio of incorporation of glucosamine to N-acetylglucosamine: 0.031

## O=C[C@H](O)[C@@H](O)[C@H](O)[C@H](O)C(=O)O [Glucuronic Acid]
[8]
  effect on IL-1β-induced NO production: do not express this activity
  Inhibitory Activity on IL-1β induced NO Production: Nil

## CC(=O)N[C@@H]1[C@@H](O)[C@@H](O)[C@@H](CO)O[C@@H]1O [N-Acetylgalactosmine]
[8]
  Inhibitory Activity on IL-1β induced NO Production: Strong

## CC(=O)N[C@H]1C(O)O[C@H](CO)[C@@H](O)[C@@H]1O (stereo partly drawn) [N-Acetylglucosamine, N-acetylglucosamine]
[14]
  times more N-acetylglucosamine incorporated into macromolecules than glucosamine: 10 times
[6]; IV
  half-life: 3.67 h
[6]; IV, human
  blood sugar when administered without insulin: Neither agent showed a rise in blood sugar
[6]; IV, in 24 hours
  administered dose excreted in the urine: 54%
[6]
  adverse events: no adverse events reported
[15]
  COX-1 Expression, Protein: No Inhibition
[8]; 10 mM concentration
  ability to inhibit IL-1β-induced NO production relative to glucosamine: 5 times
[8]
  effect on IL-1β-induced NO production: inhibit
  Inhibitory Activity on IL-1β induced NO Production: Strong
[9]; [18]
  IL-6 Production: inhibits
[9]
  inhibiting the production of IL-6: inhibiting
[10]; [18]
  Inducible NO Synthetase Expression, Protein: inhibits
  Inducible NO Synthetase Expression, mRNA: inhibits
[10]
  inhibiting the production of nitric oxide synthetase: inhibiting
[11]; [18]
  COX-2 Expression, Protein: inhibits
  COX-2 Expression, mRNA: inhibits
[11]
  inhibiting the production of COX-2: inhibiting
[16]; 3 to 6 grams daily in three divided doses
  adverse side-effects of treatment: no adverse side-effects of treatment were noted in any patient
[16]; in vivo
  histology in all cases biopsied: evidence of histological improvement
[16]; of 7, mean follow-up >2.5 years
  children with symptomatic Crohn's stricture requiring surgery: 3
[16]; oral adjunct therapy, 3-6 g daily, 12 children
  children showing clear improvement: Eight
[16]; oral adjunct therapy, 12 children
  children requiring resection: four
[16]; rectal administration as sole therapy, nine children
  cases of remission: two
[16]; [19]
  cases of clear improvement: three
  cases of no effect: two
[3]
  pH (1% in water): 7.4
  pH of solution: 7.40
[4]
  stability in the baking process: stable during the baking process

## CC(=O)N[C@@H]1C(O)O[C@H](CO)[C@@H](O)[C@@H]1O (stereo partly drawn) [N-Acetylmannosamine]
[8]
  effect on IL-1β-induced NO production: do not express this activity
  Inhibitory Activity on IL-1β induced NO Production: Nil

## CC(C)Cc1ccc(C(C)C(=O)O)cc1 (stereo not drawn) [ibuprofen]
[2]
  patients dropped out because of adverse events / side effects: 10%
  symptoms of osteoarthritis: reduced symptoms
[5]; 90 days
  patients improved (positive clinical response = 20% decrease TMJ pain with function): 61%
  patients discontinued due to inadequate pain control: one
  patients discontinued due to stomach upset: 3
[5]
  number of patients improved (positive clinical response): 11
